Experimental data taken from the kinase profiling compilation of Christmann-Franck et al. (2016).

Key:
Experiment in all cases: radiometric filter-binding kinase assay, Kinaseprofiler
AURKB (human) = AURKB (human) (UniProt Q96GD4); settings: ATP 10 µM
BRSK1 (human) = BRSK1 (human) (UniProt Q8TDC3); settings: ATP 200 µM
BTK (human) = BTK (human) (UniProt Q06187); settings: ATP 200 µM
CAMK4 (human) = CAMK4 (human) (UniProt Q16566); settings: ATP 10 µM
CDC42BPB (human) = CDC42BPB (human) (UniProt Q9Y5S2); settings: ATP 10 µM
CDK9 CCNT1 (human) = CDK9 CCNT1 (human) (UniProt P50750+O60563); settings: ATP 45 µM
CLK2 (human) = CLK2 (human) (UniProt P49760); settings: ATP 15 µM
CSF1R (human) = CSF1R (human) (UniProt P07333); settings: ATP 200 µM
DAPK2 (human) = DAPK2 (human) (UniProt Q9UIK4); settings: ATP 10 µM
DAPK3 (human) = DAPK3 (human) (UniProt O43293); settings: ATP 15 µM
FYN (human) = FYN (human) (UniProt P06241); settings: ATP 70 µM
IKBKB (human) = IKBKB (human) (UniProt O14920); settings: ATP 10 µM
ITK (human) = ITK (human) (UniProt Q08881); settings: ATP 200 µM
[1] = molecular target: JAK2 JH1 catalytic (human) (UniProt O60674); settings: ATP 45 µM
KIT (human) = KIT (human) (UniProt P10721); settings: ATP 200 µM
MAP3K7 (human) = MAP3K7 (human) (UniProt O43318); settings: ATP 45 µM
MAPK1 (human) = MAPK1 (human) (UniProt P28482); settings: ATP 155 µM
MINK1 (human) = MINK1 (human) (UniProt Q8N4C8); settings: ATP 185 µM
MUSK (human) = MUSK (human) (UniProt O15146); settings: ATP 155 µM
NEK11 (human) = NEK11 (human) (UniProt Q8NG66); settings: ATP 200 µM
NEK6 (human) = NEK6 (human) (UniProt Q9HC98); settings: ATP 45 µM
NLK (human) = NLK (human) (UniProt Q9UBE8); settings: ATP 200 µM
NUAK1 (human) = NUAK1 (human) (UniProt O60285); settings: ATP 45 µM
PKN2 (human) = PKN2 (human) (UniProt Q16513); settings: ATP 15 µM
PRKACA (human) = PRKACA (human) (UniProt P17612); settings: ATP 10 µM
PRKCB1 (human) = PRKCB1 (human) (UniProt P05771); settings: ATP 10 µM
PRKCB2 (human) = PRKCB2 (human) (UniProt P05771); settings: ATP 10 µM
PRKCQ (human) = PRKCQ (human) (UniProt Q04759); settings: ATP 15 µM
PRKCZ (human) = PRKCZ (human) (UniProt Q05513); settings: ATP 15 µM
PTK2 (human) = PTK2 (human) (UniProt Q05397); settings: ATP 70 µM
RPS6KA6 KD1 KD2 (human) = RPS6KA6 KD1 KD2 (human) (UniProt Q9UK32); settings: ATP 45 µM
SGK3 (human) = SGK3 (human) (UniProt Q96BR1); settings: ATP 155 µM
STK11 (human) = STK11 (human) (UniProt Q15831); settings: ATP 155 µM

Chain of FYN (human) (P06241 whole entry, looked up): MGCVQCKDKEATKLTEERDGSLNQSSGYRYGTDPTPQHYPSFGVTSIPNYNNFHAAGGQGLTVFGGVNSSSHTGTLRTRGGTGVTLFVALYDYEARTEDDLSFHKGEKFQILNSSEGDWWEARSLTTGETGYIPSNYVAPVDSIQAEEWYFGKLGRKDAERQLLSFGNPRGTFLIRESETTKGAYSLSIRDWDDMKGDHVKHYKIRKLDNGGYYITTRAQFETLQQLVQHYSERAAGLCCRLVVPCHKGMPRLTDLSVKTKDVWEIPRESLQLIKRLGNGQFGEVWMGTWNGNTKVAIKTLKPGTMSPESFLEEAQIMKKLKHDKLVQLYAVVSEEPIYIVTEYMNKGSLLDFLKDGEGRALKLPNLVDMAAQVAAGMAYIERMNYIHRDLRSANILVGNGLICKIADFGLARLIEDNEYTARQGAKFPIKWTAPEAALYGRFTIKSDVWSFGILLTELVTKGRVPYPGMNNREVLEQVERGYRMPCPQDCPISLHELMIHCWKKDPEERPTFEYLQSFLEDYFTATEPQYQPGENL
Chain of CLK2 (human) (P49760 whole entry, looked up): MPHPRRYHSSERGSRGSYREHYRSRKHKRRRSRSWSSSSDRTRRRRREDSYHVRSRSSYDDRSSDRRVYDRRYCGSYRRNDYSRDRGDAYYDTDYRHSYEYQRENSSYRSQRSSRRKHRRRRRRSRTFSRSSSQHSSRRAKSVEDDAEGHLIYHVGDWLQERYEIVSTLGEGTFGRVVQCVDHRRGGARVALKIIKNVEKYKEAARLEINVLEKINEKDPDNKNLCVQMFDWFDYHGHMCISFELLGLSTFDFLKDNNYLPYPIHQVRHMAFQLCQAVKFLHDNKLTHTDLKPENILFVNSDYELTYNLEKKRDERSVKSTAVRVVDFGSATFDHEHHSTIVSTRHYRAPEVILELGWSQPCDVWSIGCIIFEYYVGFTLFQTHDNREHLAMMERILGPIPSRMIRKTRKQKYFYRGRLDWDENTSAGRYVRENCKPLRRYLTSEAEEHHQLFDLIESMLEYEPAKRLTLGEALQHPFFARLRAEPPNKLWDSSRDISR
Chain of PKN2 (human) (Q16513 whole entry, looked up): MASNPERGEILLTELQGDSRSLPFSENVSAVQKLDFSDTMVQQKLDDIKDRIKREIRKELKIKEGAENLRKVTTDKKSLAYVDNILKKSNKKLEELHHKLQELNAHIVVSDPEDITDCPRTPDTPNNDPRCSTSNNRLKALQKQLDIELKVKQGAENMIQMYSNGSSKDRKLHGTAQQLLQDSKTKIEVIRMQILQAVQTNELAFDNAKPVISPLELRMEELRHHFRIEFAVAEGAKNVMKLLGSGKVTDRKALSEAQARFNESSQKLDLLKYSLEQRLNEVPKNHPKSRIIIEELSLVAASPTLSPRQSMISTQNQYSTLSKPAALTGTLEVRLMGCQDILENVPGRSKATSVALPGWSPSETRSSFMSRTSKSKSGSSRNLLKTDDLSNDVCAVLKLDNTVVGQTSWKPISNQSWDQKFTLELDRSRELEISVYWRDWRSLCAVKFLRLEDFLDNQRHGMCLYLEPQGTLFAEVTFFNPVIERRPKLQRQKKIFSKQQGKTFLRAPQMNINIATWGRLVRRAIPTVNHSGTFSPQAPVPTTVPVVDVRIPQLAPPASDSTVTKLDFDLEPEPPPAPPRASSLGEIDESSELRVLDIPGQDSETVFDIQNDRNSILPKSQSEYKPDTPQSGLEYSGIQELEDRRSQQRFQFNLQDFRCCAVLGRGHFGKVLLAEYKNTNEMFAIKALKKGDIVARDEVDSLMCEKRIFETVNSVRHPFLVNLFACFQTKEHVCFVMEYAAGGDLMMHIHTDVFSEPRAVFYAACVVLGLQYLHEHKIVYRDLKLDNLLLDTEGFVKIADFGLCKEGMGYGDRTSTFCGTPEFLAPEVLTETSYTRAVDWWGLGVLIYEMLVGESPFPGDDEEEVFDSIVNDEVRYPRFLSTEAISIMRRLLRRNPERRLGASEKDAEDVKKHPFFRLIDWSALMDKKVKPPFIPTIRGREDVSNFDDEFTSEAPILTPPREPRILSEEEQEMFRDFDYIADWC
Chain of BRSK1 (human) (Q8TDC3 whole entry, looked up): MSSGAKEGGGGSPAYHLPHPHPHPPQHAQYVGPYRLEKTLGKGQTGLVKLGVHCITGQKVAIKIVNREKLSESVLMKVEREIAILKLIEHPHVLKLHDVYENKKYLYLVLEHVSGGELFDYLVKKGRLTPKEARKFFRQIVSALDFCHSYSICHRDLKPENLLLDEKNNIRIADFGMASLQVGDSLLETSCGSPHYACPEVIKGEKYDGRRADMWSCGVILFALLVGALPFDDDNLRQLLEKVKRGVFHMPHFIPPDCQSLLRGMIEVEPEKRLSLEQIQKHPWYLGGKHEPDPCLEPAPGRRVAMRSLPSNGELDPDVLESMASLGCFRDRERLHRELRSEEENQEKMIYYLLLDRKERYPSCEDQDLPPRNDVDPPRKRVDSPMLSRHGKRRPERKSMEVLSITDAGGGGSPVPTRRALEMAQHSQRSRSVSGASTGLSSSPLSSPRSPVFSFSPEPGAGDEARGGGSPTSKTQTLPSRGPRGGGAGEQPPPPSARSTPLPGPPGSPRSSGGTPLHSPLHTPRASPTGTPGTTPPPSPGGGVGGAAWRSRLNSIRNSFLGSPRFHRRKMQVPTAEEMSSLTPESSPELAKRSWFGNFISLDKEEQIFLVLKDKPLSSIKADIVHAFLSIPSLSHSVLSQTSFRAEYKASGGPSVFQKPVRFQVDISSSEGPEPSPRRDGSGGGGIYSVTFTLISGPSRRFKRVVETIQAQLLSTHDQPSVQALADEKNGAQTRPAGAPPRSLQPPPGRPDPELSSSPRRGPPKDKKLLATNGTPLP
Chain of IKBKB (human) (O14920 whole entry, looked up): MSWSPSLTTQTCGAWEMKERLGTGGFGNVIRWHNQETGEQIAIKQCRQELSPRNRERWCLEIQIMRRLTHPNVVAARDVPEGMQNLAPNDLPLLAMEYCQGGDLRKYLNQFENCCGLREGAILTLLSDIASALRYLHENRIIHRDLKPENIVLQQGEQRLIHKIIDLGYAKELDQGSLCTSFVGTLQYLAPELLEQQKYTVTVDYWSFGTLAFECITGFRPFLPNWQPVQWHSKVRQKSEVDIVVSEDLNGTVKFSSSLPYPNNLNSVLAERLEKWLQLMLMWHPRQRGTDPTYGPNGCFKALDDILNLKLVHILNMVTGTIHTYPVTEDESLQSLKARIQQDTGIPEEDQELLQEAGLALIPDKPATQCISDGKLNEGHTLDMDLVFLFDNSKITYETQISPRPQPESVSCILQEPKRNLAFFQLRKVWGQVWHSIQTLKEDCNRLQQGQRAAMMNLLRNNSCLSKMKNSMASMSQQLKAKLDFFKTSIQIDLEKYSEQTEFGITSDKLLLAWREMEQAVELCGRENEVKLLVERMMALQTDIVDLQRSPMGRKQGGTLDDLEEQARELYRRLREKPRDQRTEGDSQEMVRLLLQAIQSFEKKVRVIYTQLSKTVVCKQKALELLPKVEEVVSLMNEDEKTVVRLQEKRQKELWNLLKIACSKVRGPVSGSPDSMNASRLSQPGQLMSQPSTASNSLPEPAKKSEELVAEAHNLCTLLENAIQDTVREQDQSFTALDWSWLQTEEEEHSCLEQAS
Chain of JAK2 JH1 catalytic (human) (O60674 whole entry, looked up): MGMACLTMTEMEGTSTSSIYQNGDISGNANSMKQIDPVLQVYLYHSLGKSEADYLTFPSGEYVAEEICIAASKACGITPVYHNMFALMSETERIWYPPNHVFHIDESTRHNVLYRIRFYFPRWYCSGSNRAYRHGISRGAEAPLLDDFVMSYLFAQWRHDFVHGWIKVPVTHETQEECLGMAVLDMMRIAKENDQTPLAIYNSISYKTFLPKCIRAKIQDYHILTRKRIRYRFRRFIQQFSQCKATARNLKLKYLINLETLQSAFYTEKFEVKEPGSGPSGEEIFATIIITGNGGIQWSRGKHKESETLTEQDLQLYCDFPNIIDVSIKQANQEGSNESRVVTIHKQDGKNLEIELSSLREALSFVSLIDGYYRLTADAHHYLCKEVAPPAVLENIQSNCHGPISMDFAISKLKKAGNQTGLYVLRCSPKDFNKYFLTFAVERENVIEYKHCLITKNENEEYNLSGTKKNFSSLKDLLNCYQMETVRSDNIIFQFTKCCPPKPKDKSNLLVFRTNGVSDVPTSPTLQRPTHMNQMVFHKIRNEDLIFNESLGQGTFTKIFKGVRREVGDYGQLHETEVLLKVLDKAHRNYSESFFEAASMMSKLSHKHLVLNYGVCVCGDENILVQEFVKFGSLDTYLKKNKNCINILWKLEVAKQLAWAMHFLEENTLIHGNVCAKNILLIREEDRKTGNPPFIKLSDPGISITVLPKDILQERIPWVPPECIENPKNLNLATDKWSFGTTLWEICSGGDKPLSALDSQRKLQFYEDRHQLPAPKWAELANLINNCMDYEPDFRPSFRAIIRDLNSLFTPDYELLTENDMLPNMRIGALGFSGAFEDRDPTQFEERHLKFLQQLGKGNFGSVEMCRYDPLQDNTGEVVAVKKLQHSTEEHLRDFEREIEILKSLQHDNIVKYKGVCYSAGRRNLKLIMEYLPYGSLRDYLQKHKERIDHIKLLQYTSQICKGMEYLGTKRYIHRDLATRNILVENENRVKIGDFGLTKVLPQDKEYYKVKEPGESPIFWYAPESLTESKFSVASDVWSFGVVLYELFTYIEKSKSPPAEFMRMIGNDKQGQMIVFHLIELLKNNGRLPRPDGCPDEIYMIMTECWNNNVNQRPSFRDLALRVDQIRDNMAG
Chain of AURKB (human) (Q96GD4 whole entry, looked up): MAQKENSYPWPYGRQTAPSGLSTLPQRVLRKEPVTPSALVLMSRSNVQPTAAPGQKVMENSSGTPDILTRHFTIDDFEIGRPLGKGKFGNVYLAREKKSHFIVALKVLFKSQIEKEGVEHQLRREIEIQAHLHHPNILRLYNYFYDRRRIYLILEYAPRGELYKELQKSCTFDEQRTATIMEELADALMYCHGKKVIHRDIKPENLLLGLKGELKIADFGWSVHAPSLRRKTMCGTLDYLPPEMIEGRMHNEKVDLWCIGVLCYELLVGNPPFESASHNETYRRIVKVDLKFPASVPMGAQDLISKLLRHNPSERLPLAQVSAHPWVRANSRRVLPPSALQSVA

With `O=C1c2ccccc2-c2n[nH]c3cccc1c23` the residual activity (AURKB (human); compound 1.0 µM) was 1%, the residual activity (AURKB (human); compound 10.0 µM) was 0% and the residual activity (BRSK1 (human); compound 1.0 µM) was 38%. The residual activity (BRSK1 (human); compound 10.0 µM) was 29%, the residual activity (BTK (human); compound 1.0 µM) was 88% and the residual activity (BTK (human); compound 10.0 µM) was 57%. For the same compound, the residual activity (CAMK4 (human); compound 1.0 µM) was 73%, the residual activity (CAMK4 (human); compound 10.0 µM) was 24% and the residual activity (CDC42BPB (human); compound 1.0 µM) was 90%. For the same compound, the residual activity (CDC42BPB (human); compound 10.0 µM) was 95%, the residual activity (CDK9 CCNT1 (human); compound 1.0 µM) was 96% and the residual activity (CDK9 CCNT1 (human); compound 10.0 µM) was 55%. For the same compound, the residual activity (CLK2 (human); compound 1.0 µM) was 36%, the residual activity (CLK2 (human); compound 10.0 µM) was 21% and the residual activity (CSF1R (human); compound 1.0 µM) was 36%. It also gave a residual activity (CSF1R (human); compound 10.0 µM) of 9%, a residual activity (DAPK2 (human); compound 1.0 µM) of 87% and a residual activity (DAPK2 (human); compound 10.0 µM) of 43%. For the same compound, the residual activity (DAPK3 (human); compound 1.0 µM) was 87%, the residual activity (DAPK3 (human); compound 10.0 µM) was 45% and the residual activity (FYN (human); compound 1.0 µM) was 60%. It also gave a residual activity (FYN (human); compound 10.0 µM) of 47%, a residual activity (IKBKB (human); compound 1.0 µM) of 78% and a residual activity (IKBKB (human); compound 10.0 µM) of 43%. It also gave a residual activity (ITK (human); compound 1.0 µM) of 67%, a residual activity (ITK (human); compound 10.0 µM) of 21% and a residual activity ([1]; compound 1.0 µM) of 58%. It also gave a residual activity ([1]; compound 10.0 µM) of 11%, a residual activity (KIT (human); compound 1.0 µM) of 91% and a residual activity (KIT (human); compound 10.0 µM) of 30%. For the same compound, the residual activity (MAP3K7 (human); compound 1.0 µM) was 41%, the residual activity (MAP3K7 (human); compound 10.0 µM) was 19% and the residual activity (MAPK1 (human); compound 1.0 µM) was 88%. The residual activity (MAPK1 (human); compound 10.0 µM) was 55%, the residual activity (MINK1 (human); compound 1.0 µM) was 86% and the residual activity (MINK1 (human); compound 10.0 µM) was 50%. The residual activity (MUSK (human); compound 1.0 µM) was 60%, the residual activity (MUSK (human); compound 10.0 µM) was 24% and the residual activity (NEK11 (human); compound 1.0 µM) was 50%. The residual activity (NEK11 (human); compound 10.0 µM) was 47%, the residual activity (NEK6 (human); compound 1.0 µM) was 107% and the residual activity (NEK6 (human); compound 10.0 µM) was 101%. For the same compound, the residual activity (NLK (human); compound 1.0 µM) was 78%, the residual activity (NLK (human); compound 10.0 µM) was 71% and the residual activity (NUAK1 (human); compound 1.0 µM) was 28%. It also gave a residual activity (NUAK1 (human); compound 10.0 µM) of 17%, a residual activity (PKN2 (human); compound 1.0 µM) of 74% and a residual activity (PKN2 (human); compound 10.0 µM) of 32%. For the same compound, the residual activity (PRKACA (human); compound 1.0 µM) was 89%, the residual activity (PRKACA (human); compound 10.0 µM) was 73% and the residual activity (PRKCB1 (human); compound 1.0 µM) was 102%. It also gave a residual activity (PRKCB1 (human); compound 10.0 µM) of 104%, a residual activity (PRKCB2 (human); compound 1.0 µM) of 108% and a residual activity (PRKCB2 (human); compound 10.0 µM) of 102%. For the same compound, the residual activity (PRKCQ (human); compound 1.0 µM) was 90%, the residual activity (PRKCQ (human); compound 10.0 µM) was 76% and the residual activity (PRKCZ (human); compound 1.0 µM) was 110%. The residual activity (PRKCZ (human); compound 10.0 µM) was 106%, the residual activity (PTK2 (human); compound 1.0 µM) was 52% and the residual activity (PTK2 (human); compound 10.0 µM) was 9%. The residual activity (RPS6KA6 KD1 KD2 (human); compound 1.0 µM) was 43%, the residual activity (RPS6KA6 KD1 KD2 (human); compound 10.0 µM) was 52% and the residual activity (SGK3 (human); compound 1.0 µM) was 85%. The residual activity (SGK3 (human); compound 10.0 µM) was 58%, the residual activity (STK11 (human); compound 1.0 µM) was 75% and the residual activity (STK11 (human); compound 10.0 µM) was 41%.
